One compound from patent publication US8273730B2, “Use of estriol in low doses” (Italfarmaco, SA, priority 2007, dated 2012) can be followed below.

This assay relates to vaginal atrophy in female ovariectomized Wistar Han rats. The assay can be described thus: Assay I: assessment of the effect on vaginal atrophy (vaginal smears: cornified cells, maturation index, overall trophism). The assay is classed as in vivo, rat. As to conditions: dose 10 times less than the usual dose; rats of both groups (cream and gel). How it is done:
In this study a total of 8 female ovariectomized Wistar Han rats were used, which were randomly distributed into 2 groups with 4 animals each. Group A was treated with Formulation 1 whereas Group B was treated with Formulation 2.
After 18 days had elapsed from the reception of the ovariectomized animals, several vaginal smears were periodically performed in each rat, until the menopausal condition (particularly vaginal atrophy) was verified in all the rats, determining the maturation index of the vaginal epithelium.
Once the treatment had started, Formulations 1 (0.005% estriol cream) and 2 (0.005% estriol gel) were administered to experimental Group A and B, respectively, once a day for 5 days. The administration was carried out by vaginal route, in an amount of 5.8 mg of formulation/animal (corresponding to 0.29 μg of estriol/animal), using a positive displacement multipipette equipped with a special tip. […]
The effect of the treatment with each of the formulations was assessed by means of the appearance of cornified cells, the determination of the maturation index of the vaginal epithelium and the evaluation of the overall trophism.

With `C[C@]12CC[C@@H]3c4ccc(O)cc4CC[C@H]3[C@@H]1C[C@@H](O)[C@@H]2O` [estriol], the “Effect on vaginal atrophy condition” value was “reverses the vaginal atrophy condition”.
